Drawing on patent US11154619B2, “Liposomal compositions with light illumination-induced drug release” (Creighton University, priority 2017, dated 2021), this text covers cell death for 1 compound.

The assay deals with WI26-VA4 cells. As to the kind of experiment: Doxorubicin cytotoxicity by MTT cell viability assay, liposomes with or without pre-illumination. It is filed as cell-based. The settings on record: total dose of 1 μM; co-incubated with cells for 4 hours; evaluated 48 hours after treatment; no illumination. The protocol: Studies were performed on the fluorescent marker- or drug-loaded liposomes described above diluted to a concentration of 0.2 mM by total lipids with or without the photosensitizer-peptide conjugate described above at 1:80 to 1:5 molar ratio to total lipids. Optionally, samples were also supplied with antioxidants/reducing agents or other additional substances at different concentrations. Samples were either illuminated as described below or kept for the same time period under different control conditions.
Illumination of prepared liposomes with or without photosensitizer-peptide conjugate was mostly preformed using a setup that included a halogen utility lamp, a 2-inch thick flowing water filter to cut infrared irradiation above 950 nm and a red optical cast plastic filter (EdmundOptics) to cut off light irradiation below 620 nm (FIG. 1). […]
Release of the drug substance (doxorubicin hydrochloride) from the liposomes was done by enhancement of its biological action (cytotoxicity) on cultured WI26-VA4 cells after pre-illuminating liposomes with or without photosensitizer-peptide conjugate in comparison to liposomes at the same dose without pre-illumination, co-incubated with cells for 4 hours. The extent of cell death was evaluated 48 hours after treatment using a MTT cell viability assay.

The structures appear in SMILES notation. Structures can show the parent of a compound that is named as a salt.

`COc1cccc2c1C(=O)c1c(O)c3c(c(O)c1C2=O)C[C@@](O)(C(=O)CO)C[C@@H]3O[C@H]1C[C@H](N)[C@H](O)[C@H](C)O1` [doxorubicin hydrochloride]: the cell death result is recorded as “about 60%”.
